Data published in patent US9676786B2, “Pharmacologically active compounds” (The University of Liverpool, priority 2013, dated 2017).

Legend:
[1] = biological target: α1 glycine receptor (Homo sapiens (Human), UniProt P23415); assay: Expression and electrophysiological characterization of glycine receptor activity (patch/voltage clamp); type: cell-based; settings: modulation of agonist induced currents at glycine EC20; means ± s.d.
Protocol: Human embryonic kidney (HEK) 293 cells (ATCC CRL 1573) and/or Xenopus laevis oocytes were used for expressing the human a1-3 glycine receptor subunit as well as human a1, b3, g2 GABA receptor subunit cDNAs inserted into mammalian expression vectors. Patch- and voltage-clamp recording from receptor expressing cells was performed at a holding potential of −70 mV in normal Ringer solution and digitized for analyses. Dose-response curves of agonist induced peak currents (I) were normalized to the maximal current value obtained and fitted with the sigmoidal Hill equation using a Gauss Marquardt iteration, where EC50 represents the glycine/GABA concentration resulting in a half maximal response. Effects of the compounds tested on agonist induced currents were analysed after superfusing the cells with the respective compound for 5 seconds prior to and during agonist application and dose-response curves of modulated currents were determined in the presence of agonist concentrations eliciting a response corresponding to 20% of the maximal inducible current (EC20 value). Results represent means±s.d. and the significance of the data was evaluated using Student's paired t test and considered to be statistically significant at P<0.05.

[2] = Pharmacokinetic evaluation, oral dosing in rats; type: in vivo, rat; settings: 10 mg/kg oral, SSV, non-fasted rats
Protocol: • Dose—10 mg/kg (5 mL/kg) • Route—ORAL • Vehicles—10% DMSO/10% Solutol and SSV • Time—24 h • Procedure Number—6 Vehicles • 10% DMSO/10% Solutol/80% Saline • 1) Compound was weighed out into a clean vial. • 2) DMSO was added into the vial; the vial was vortexed and sonicated it for 15 min. • 3) Solutol HS 15 was heated at 50° C. until a liquid formed, and then was added into the vial. The vial was vortexed for 1-2 min. • 4) 0.9% Saline solution was added to the vial. The vial was vortexed and then sonicated for 10 min. Standard Suspension Vehicle (SSV) • 1) A solution of SSV was made using 0.5% Sodium carboxymethylcellulose, 0.5% Benzyl alcohol, 0.4% Tween80 and 98.6% saline (0.9%) • 2) Compound was weighed out into a clean vial • 3) SSV solution was added into the vial; the vial was vortexed and sonicated it for 15 min. Fasted Rats
Fasted rats were fasted overnight and given access to food immediately after dosing.
• 1) Rats were manually restrained and given a 10 mg/kg oral dose of compound at 5 mL/kg. • 2) At designated time points (0.25, 0.5, 1, 3, 5, 7 and 24 hours) the rats were anaesthetised using isoflurane. • 3) Approximately 300 μL of blood was taken from the tail vein using a 1.5 inch needle treated with heparin and collected into 1.5 mL eppendorf tubes. • 4) After sampling, pressure was applied to the puncture until bleeding ceased. The animals were returned to their cages and given free access to food and water. • 5) Blood samples were stored on ice and then centrifuged at 13,000 rpm for 15 min to separate the plasma. • 6) 150 μL of the plasma was treated with 300 μL of ACN:MeOH (1:1) solution containing the internal standard. The samples were then centrifuged for a further 15 min at 13,000 rpm. • 7) 200 μL of the supernatant was collected and placed in LC-MS vials for analysis. All samples were stored at −80° C. Results

[3] = test system: neuropathic rats; assay: Comparison of LT-01-25 and LT-01-89: ipsilateral paw withdrawal thresholds to mechanical pressure in neuropathic rats; type: in vivo, rat; settings: 30 mg/kg p.o., male SD rats
Protocol: Male, SD rats. n=6/group. Vehicle: 10% DMSO/10% Solutol HS15/80% saline.
• 1) In rats a peripheral neuropathy was induced by partial ligation of the sciatic nerve in one hind limb. • 2) Two weeks (12-15 days) after induction of peripheral neuropathy stable mechanical (tactile) allodynia was induced in the hind paw of the affected limb. • 3) Five treatment groups of male SD rats (n=8) were used: vehicle control (drug formulation), 3 drug doses, and a positive control, lamotrigine (30 mg/kg). Animals were randomized between groups and the experiment was carried out using blinded conditions. The study was split with n=4/group in each experiment. • 4) Baseline behavioural measurements were obtained prior to surgery and at intervals post-surgery. Predose behavioural measurements were obtained by measuring paw withdrawal thresholds 12-15 days following nerve ligation. • 5) Compound efficacy was determined by measuring paw withdrawal thresholds at specified intervals following vehicle/compound treatment. Methods Animals
Animals were maintained in a controlled lighting environment and given food and water ad libitum. Male Sprague Dawley rats (120-140 g at time of surgery) were used.
Rats were fasted overnight with free access to water and fed 4 hours post-dose.
Tests compounds as well as Lamotrigine (30 mg/kg, volume: 10 ml/kg)) were prepared in the designated formulation (10% DMSO, Solutol HS 15/80% and 0.9% saline for p.o. administration) and administered via the chosen route.
Rats were anaesthetised (isoflurane/O2 inhalation), the left sciatic nerve was exposed at mid-thigh level through a small incision and ⅓ to ½ of the nerve thickness tightly ligated within a 7.0 silk suture. The wound was closed with skin clips. Animals were allowed to recover and compounds administered 12-15 days following surgery.
Compound/vehicle were administered at specified doses. Following treatment, further readings were taken; 1, 3, 6 and 24 hour after p.o. administration.

[4] = test system: neuropathic rats; assay: Comparison of LT-01-25 and LT-01-89: ipsilateral withdrawal latencies to cold (10° C.) stimulus in neuropathic rats; type: in vivo, rat; settings: 30 mg/kg p.o., male SD rats
[5] = Cerebrospinal fluid (CSF) levels after oral dosing; type: in vivo; settings: p.o. dose 3 mg/kg, after 2 hr, fasted male SD rat
[6] = Rat microsomal stability; type: in vitro ADME; settings: Rat microsomes, 1 μM
Excerpt: Rat and human microsomal stability data was obtained using well established protocols known to those skilled in the art.

[7] = Human microsomal stability; type: in vitro ADME; settings: human microsomes, 1 μM
Protocol: The metabolic stability assay was performed by incubating each test compound (1 μM) with human liver microsomes in duplicate at 37° C. and 0.4 mg/mL protein concentration. The metabolic reaction was initiated by the addition of a NADPH-regenerating system (i.e. NADPH is the cofactor required for CYP450-mediated metabolism) and quenched at various time points over the 60 minute incubation period by the addition of acetonitrile. Control samples (containing no NADPH) were included (and quenched at 2, 30 and 60 minutes) to monitor for potential degradation in the absence of cofactor. Samples were analysed by UPLC-MS (Waters/Micromass Xevo G2 QTOF) under positive electrospray ionisation and MS spectral data acquired in a mass range of 80 to 1200 Daltons.
Test compound concentration versus time data were fitted to an exponential decay function to determine the first-order rate constant for substrate depletion. In cases where clear deviation from first-order kinetics was evident, only the initial linear portion of the profile was utilised to determine the degradation rate constant (k). Each substrate depletion rate constant was then used to calculate: [1] a degradation half-life, [2] an in vitro intrinsic clearance value (CLint, in vitro); [3] a predicted in vivo hepatic intrinsic clearance value (CLint); [4] a predicted in vivo blood clearance value (CLblood); and [5] a predicted in vivo hepatic extraction ratio (EH).
• 1) The substrate concentration employed is well below the apparent KM for substrate turnover; and, • 2) There is no significant product inhibition, nor is there any mechanism-based inactivation of enzyme. The use of hepatic microsomes in the prediction of the in vivo hepatic extraction ratio has two further inherent assumptions (Obach, 1999) which: • 1) NADPH-dependent oxidative metabolism predominates over other metabolic routes (i.e. direct conjugative metabolism, reduction, hydrolysis, etc.); and, • 2) Rates of metabolism and enzyme activities in vitro are truly reflective of those that exist in vivo. Data should be considered within these terms of reference.

[8] = test system: neuropathic rats; assay: Mechanical hyperalgesia, paw withdrawal thresholds in neuropathic rats (partial sciatic nerve ligation); type: in vivo, rat; settings: neuropathic Wistar rats; positive control
Excerpt: (§1) The wound was closed with skin clips.
(§2) Control animals received vehicle alone.

[9] = test system: neuropathic rats; assay: Cold sensitivity (10° C. cold plate), paw withdrawal latencies in neuropathic rats; type: in vivo, rat; settings: neuropathic Wistar rats; positive control
Excerpt: as §1, §2

Sequence of α1 glycine receptor (P23415 29-457 limits assumed): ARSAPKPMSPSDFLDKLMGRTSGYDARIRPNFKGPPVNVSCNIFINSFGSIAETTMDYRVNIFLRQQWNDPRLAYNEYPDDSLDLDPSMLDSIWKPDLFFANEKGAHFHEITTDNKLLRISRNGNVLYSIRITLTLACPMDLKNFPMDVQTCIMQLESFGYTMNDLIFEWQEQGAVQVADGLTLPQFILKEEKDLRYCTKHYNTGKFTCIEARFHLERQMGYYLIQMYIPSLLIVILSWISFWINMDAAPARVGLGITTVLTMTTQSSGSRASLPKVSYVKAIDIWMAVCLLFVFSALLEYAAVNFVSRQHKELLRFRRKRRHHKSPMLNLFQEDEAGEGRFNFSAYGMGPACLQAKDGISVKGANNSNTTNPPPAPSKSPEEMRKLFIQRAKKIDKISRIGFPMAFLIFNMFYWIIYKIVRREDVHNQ

Question: Which EC50 [1] does the source give for `CC(C)c1cc(C(=O)N2CCO[C@H](C)C2)cc(C(C)C)c1O` [Example 2, (R)-(4-(hydroxy)-3,5-diisopropylphenyl)(2-methylmorpholino)methanone] here?
Answer: Its EC50 is 0.06 nM.

Question: What does the source list for `CC(C)(C)c1cc(C(=O)N2CCOCC2)cc(C(C)(C)C)c1O` [LT-01-89, (4-(hydroxy)-3,5-di-tertbutyl)(morpholino)methanone, reference compound]?
Answer: AUC∞ (area) [2]: 5931.7 ng·h/mL; CL (area)/kg [2]: 17.947 mL/min/kg; Cmax [2]: 471.2 ng/mL; Half Life [2]: 20.4 h; Tmax [2]: 1.2 h; Vd (area)/kg [2]: 32.7299 L/kg; Mechanical pressure Percentage reversal of predose hyperalgesia ([3]; 1 hr): 1 hr - - - 70%; Mechanical pressure Percentage reversal of predose hyperalgesia ([3]; 3 hr): 3 hr - - - 50%; Mechanical pressure Percentage reversal of predose hyperalgesia ([3]; 6 hr): 6 hr - - - 20%; Cold (10° C.) Stimulus Percentage reversal of predose Hyperalgesia ([4]; 1 hr): 1 hr - - - 70%; Cold (10° C.) Stimulus Percentage reversal of predose Hyperalgesia ([4]; 3 hr): 3 hr - - - 65%; Cold (10° C.) Stimulus Percentage reversal of predose Hyperalgesia ([4]; 6 hr): 6 hr - - - 10%; CSF levels [5]: 27 ng/mL; CSF levels as multiple of EC50 [5]: (180 × EC50); Cl [6]: 20.38 mL/min/kg; t1/2 [6]: 2.02 h; Cl (values marked *) ([6]; second set marked *): 5.26 mL/min/kg (Cl)*; t1/2 (values marked *) ([6]; second set marked *): 165 min (t1/2)*; Cl (values marked *) [7]: 6.2 mL/min/kg (Cl) *; t1/2 (values marked *) [7]: 138.6 min (t1/2) *

Question: Which “Reversal, mechanical (positive control)” value [8] does the source give for `Nc1nnc(-c2cccc(Cl)c2Cl)c(N)n1` [lamotrigine, reference compound] here?
Answer: Its value is 65%.

Question: And the “Reversal, cold (positive control)” value [9]?
Answer: The value was 72%.
